Results from publication PMC11406361, “Several orphan solute carriers functionally identified as organic cation transporters: Substrates specificity compared with known cation transporters” (The Journal of Biological Chemistry, 2024).

What was measured:
[1] = target: T1, SLC47A1 (Homo sapiens, UniProt Q96FL8); experiment: Uptake ratio screen, SLC47A1-overexpressing HEK293 over empty vector cells; type: cell-based; conditions: 2.5 μM, 2 min
T1 sequence (Q96FL8 1-570): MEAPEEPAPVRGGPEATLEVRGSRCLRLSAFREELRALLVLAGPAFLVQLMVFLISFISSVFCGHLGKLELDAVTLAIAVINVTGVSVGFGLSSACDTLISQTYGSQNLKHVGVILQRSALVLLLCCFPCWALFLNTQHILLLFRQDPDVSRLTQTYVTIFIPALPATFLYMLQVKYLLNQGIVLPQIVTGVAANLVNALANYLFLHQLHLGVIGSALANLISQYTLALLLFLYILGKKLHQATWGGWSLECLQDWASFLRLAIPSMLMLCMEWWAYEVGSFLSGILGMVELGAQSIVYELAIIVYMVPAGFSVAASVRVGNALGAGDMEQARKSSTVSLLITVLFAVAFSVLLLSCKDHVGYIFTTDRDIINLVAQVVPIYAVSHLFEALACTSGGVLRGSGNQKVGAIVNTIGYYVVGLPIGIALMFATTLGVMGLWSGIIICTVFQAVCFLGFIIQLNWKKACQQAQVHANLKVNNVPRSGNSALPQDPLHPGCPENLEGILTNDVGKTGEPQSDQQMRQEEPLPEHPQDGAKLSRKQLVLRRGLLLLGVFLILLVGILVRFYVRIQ
Protocol: (§1) Typically discussed substrates of the proton organic-cation antiporter ([14]) are highlighted in dark green in Figure 1.
(§2) In preparation for transport experiments, 24-well plates were pre-coated with poly-D-lysine (Sigma-Aldrich) and 300,000 cells were plated per well and incubated for 48 h. Firstly, the 24-well plate was placed on a heating plate at 37 °C, and the cells were washed with 37 °C HBSS^+ buffer (Hank’s balanced salt solution supplemented with 10 mM Hepes and adjusted to pH 7.4; Thermo Fisher Scientific). The substance-of-interest, which was diluted in 37 °C HBSS^+ to a desired concentration, was added to the cells for exactly 2 min. […] The uptake was stopped with ice-cold HBSS^+, and the 24-well plate was removed from the heating plate. The cells were washed twice with the cold HBSS^+ before they were lysed for 15 min with 80% (v/v) acetonitrile containing the respective internal standard for mass spectrometry. For variations in seeded cell numbers between the cell lines, several wells were lysed in RIPA buffer and used for total protein quantification using a bicinchoninic assay ([74]) and bovine serum albumin as calibration.
(§3) The intracellular drug concentrations after transport experiments were analyzed by high-performance liquid chromatography coupled to tandem mass spectrometry analysis. The HPLC consisted of a Shimadzu Nexera HPLC System with a SIL-30AC autosampler, a LC-30AD pump, a CTO-20AC column oven, and a CBM-20A controller (Shimadzu). The reverse-phase chromatography of compounds was accomplished with a Brownlee SPP RP-Amide column with 4.6 × 100 mm inner dimensions, a particle size of 2.7 μm, and a preceding Phenomenex C-18 guard column. […] After separation, the detection of substances was performed with an API 4000 tandem mass spectrometer (AB SCIEX, https://sciex.com/support/software-support/software-downloads), followed by quantification of results with the Analyst software (AB SCIEX, version 1.6.2). […]
(§4) Transport-mediated net uptake was determined as fold-increase of transporter-overexpressing cells over empty vector–transfected control cells.

[2] = target: OCT2 (Homo sapiens, UniProt O15244); conditions: 2.5 μM, 2 min, HEK293
Chain of OCT2 (O15244 whole entry): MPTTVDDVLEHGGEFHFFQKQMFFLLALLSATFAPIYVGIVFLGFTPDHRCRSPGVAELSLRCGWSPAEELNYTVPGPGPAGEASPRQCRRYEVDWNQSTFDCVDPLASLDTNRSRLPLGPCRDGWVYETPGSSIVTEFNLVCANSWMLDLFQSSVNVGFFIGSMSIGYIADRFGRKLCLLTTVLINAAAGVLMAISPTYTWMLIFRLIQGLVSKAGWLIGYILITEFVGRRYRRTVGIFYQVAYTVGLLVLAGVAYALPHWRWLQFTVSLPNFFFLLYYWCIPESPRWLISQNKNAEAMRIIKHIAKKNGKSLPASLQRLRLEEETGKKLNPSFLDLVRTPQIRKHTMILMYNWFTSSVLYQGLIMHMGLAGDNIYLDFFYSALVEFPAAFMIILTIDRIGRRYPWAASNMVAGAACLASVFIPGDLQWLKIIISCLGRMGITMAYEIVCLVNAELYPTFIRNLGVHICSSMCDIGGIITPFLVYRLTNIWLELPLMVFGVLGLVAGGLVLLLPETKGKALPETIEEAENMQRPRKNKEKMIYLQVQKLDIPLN
Protocol: as §1, §2
(§5) The intracellular drug concentrations after transport experiments were analyzed by high-performance liquid chromatography coupled to tandem mass spectrometry analysis. The HPLC consisted of a Shimadzu Nexera HPLC System with a SIL-30AC autosampler, a LC-30AD pump, a CTO-20AC column oven, and a CBM-20A controller (Shimadzu). The reverse-phase chromatography of compounds was accomplished with a Brownlee SPP RP-Amide column with 4.6 × 100 mm inner dimensions, a particle size of 2.7 μm, and a preceding Phenomenex C-18 guard column. The mobile phase was composed of an organic additive with acetonitrile:methanol 6:1 (v/v) in total concentrations between 3% and 50% (v/v) and 0.1% (v/v) formic acid in the aqueous component of the eluent. During separation, the column oven was held at 40 °C and the mobile phase was maintained at a flow rate of 300 or 400 μl/min. After separation, the detection of substances was performed with an API 4000 tandem mass spectrometer (AB SCIEX, https://sciex.com/support/software-support/software-downloads), followed by quantification of results with the Analyst software (AB SCIEX, version 1.6.2). The composition of chromatographic conditions, as well as detailed mass spectrometric detection parameters, are listed in Table S5.
as §4

[3] = target: OCT1 (Homo sapiens, UniProt O15245); conditions: 2.5 μM, 2 min, HEK293
Chain of OCT1 (O15245 whole entry): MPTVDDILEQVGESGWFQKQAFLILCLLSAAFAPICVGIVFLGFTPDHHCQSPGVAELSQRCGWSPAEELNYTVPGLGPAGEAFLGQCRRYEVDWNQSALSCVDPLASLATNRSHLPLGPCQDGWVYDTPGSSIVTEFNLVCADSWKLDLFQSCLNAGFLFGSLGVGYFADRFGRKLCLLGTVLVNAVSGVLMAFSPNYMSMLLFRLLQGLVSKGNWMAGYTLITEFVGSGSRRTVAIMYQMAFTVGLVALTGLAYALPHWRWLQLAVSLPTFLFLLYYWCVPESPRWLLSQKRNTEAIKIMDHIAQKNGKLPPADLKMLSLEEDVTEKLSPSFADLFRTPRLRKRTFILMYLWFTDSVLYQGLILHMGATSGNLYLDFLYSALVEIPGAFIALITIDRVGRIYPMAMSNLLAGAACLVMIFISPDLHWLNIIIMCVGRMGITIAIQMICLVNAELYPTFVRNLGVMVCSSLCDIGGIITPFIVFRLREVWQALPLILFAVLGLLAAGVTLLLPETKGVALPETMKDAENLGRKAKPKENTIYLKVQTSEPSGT
Protocol: as §1, §2, §5, §4

[4] = target: SLC47A2 (Homo sapiens, UniProt Q86VL8); experiment: Uptake ratio screen, SLC47A2-overexpressing HEK293 over empty vector cells; type: cell-based; conditions: 2.5 μM, 2 min
Chain of SLC47A2 (Q86VL8 1-566 isoform Q86VL8-3): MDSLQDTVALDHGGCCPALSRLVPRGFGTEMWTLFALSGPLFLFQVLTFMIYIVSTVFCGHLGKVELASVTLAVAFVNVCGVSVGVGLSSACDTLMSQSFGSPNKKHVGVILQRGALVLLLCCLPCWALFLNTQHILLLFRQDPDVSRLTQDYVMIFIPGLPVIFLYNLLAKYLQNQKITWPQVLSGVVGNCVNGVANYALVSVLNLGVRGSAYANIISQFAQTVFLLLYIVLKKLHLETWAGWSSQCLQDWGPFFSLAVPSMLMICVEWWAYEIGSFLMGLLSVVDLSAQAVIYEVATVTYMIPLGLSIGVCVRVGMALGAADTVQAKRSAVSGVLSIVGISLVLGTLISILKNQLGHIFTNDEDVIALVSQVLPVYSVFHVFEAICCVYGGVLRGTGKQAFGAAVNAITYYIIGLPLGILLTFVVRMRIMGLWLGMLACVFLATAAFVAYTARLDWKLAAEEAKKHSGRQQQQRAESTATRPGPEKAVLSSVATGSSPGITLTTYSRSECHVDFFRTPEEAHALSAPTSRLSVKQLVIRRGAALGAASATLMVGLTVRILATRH
Protocol: as §1, §2, §3, §4

[5] = test system: hCMEC/D3 cell line; experiment: Antiport (exchange) of diphenhydramine and nalmefene in hCMEC/D3 cells; type: cell-based, human; conditions: hCMEC/D3 preloaded with DPH, within 2 min, unpublished data
[6] = target: SLC35F3 (Homo sapiens, UniProt Q8IY50); conditions: 2.5 μM, 2 min, HEK293
Chain of SLC35F3 (Q8IY50 whole entry): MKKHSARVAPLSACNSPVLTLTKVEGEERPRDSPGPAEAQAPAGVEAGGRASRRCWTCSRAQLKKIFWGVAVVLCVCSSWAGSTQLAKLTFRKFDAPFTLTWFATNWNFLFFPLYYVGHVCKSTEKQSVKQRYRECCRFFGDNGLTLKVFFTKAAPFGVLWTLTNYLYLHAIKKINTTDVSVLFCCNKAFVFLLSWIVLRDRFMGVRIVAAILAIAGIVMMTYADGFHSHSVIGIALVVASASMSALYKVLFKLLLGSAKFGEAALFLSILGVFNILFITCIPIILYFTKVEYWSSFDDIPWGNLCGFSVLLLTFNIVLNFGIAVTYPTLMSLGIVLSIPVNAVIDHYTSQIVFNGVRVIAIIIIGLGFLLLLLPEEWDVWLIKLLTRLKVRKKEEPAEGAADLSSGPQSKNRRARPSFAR
Protocol: as §1, §2, §5, §4

[7] = target: T2, SLC35F4 (Homo sapiens, UniProt A4IF30); experiment: Uptake ratio screen, SLC35F4-overexpressing HEK293 over empty vector cells; type: cell-based; parameters: by amplifying the entire gene-of-interest within the HEK293 genome via a long-range PCR; conditions: 2.5 μM, 2 min
T2 sequence (A4IF30 1-521): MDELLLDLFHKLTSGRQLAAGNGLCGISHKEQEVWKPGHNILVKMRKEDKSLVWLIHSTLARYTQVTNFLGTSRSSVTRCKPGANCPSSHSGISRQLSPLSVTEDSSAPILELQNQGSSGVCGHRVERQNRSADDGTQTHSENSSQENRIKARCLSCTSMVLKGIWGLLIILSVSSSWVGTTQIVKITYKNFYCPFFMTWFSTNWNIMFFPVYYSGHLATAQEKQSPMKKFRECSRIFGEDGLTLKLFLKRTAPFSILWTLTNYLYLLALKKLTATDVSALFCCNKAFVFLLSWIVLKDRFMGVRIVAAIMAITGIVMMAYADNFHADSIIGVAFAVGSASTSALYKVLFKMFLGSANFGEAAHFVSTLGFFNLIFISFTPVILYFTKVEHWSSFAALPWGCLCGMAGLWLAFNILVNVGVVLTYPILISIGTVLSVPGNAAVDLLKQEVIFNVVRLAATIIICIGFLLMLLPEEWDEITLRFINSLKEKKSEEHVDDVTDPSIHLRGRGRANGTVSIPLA
Protocol: as §1, §2, §5, §4

[8] = target: SLC35G3 (Homo sapiens, UniProt Q8N808); experiment: Uptake ratio screen, SLC35G3-overexpressing HEK293 over empty vector cells; type: cell-based; parameters: by amplifying the entire gene-of-interest within the HEK293 genome via a long-range PCR; conditions: 2.5 μM substrate, 2 min, HEK293
Chain of SLC35G3 (Q8N808 whole entry): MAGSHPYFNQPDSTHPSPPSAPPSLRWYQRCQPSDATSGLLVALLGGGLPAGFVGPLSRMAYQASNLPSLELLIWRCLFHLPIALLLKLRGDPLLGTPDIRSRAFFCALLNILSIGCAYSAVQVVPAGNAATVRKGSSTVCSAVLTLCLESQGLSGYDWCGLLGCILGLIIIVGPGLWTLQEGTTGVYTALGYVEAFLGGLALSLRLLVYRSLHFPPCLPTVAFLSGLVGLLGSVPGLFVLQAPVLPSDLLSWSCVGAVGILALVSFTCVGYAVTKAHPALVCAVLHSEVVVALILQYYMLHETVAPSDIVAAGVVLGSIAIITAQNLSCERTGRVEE

Nc1nc(=O)n([C@@H]2CS[C@H](CO)O2)cc1F [emtricitabine]
Uptake by SLC47A1 (MATE1) (in words) [1]: only transported by the MATEs | Uptake by OCT2 (in words) [2]: to some extent | Uptake by OCT1 (in words) [3]: to some extent | Uptake by SLC47A2 (MATE2K) (in words) [4]: only transported by the MATEs

CN(C)CCOC(c1ccccc1)c1ccccc1 [Diphenhydramine]
Share of substrates exchanged (antiport) [5]: approximately 60%

Cc1ncc(C[n+]2csc(CCO)c2C)c(N)n1 [Thiamine]
Uptake by SLC35F3 (in words) [6]: no enhanced thiamine uptake | Uptake by SLC35F4 (in words) [7]: no enhanced thiamine transport | Uptake data for SLC35G3, mean value (fold-increase over empty vector control) [8]: 0.90
